Experimental findings from patent publication US8198273B2, “Compounds and methods for kinase modulation, and indications therefor” (Plexxikon Inc., priority 2009, dated 2012) are described below.

Bounds are passed on as bounds.

For one data set, the target named is CYP3A4(BFC) (Homo sapiens, UniProt P08684). Put plainly: CYP3A4(BFC) inhibition (fluorescent substrate). It is filed as in vitro ADME. The settings on record: read-out: Cyp IC50 3A4(BFC). Summed up:
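Inhibition was followed as loss of fluorescent metabolite from a known substrate, with compound in co-factor mix as a 10-point 1:1 serial dilution (100 mM DMSO stock).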

A further data set concerns the target c-Raf-1 (Homo sapiens, UniProt P04049). In words: c-Raf-1 biochemical kinase inhibition (AlphaScreen, biotin-MEK1 substrate). The settings on record: 100 μM ATP. Summed up: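 IC50 derived from AlphaScreen signal plotted against compound concentration. Final ATP 100 μM; 3 h incubation at room temperature. Eight-point 3-fold dilution series prepared from a 0.1 mM DMSO stock.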
On the technique in general: Alpha assays give light when donor and acceptor beads are brought close together.

In data set [1] the test system is SW620 colon adenocarcinoma cells (wild-type B-RAF). In words: SW620 cell growth inhibition (ATPlite). The data set is classed as cell-based. The settings on record: Homo sapiens, SW-620, 72 h; SW620, 3 days incubation. Summed up:
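Cells plated overnight, then exposed 3 days at 37° C to 8-point 1:3 compound dilutions topping at 10 μM final. Viability read as ATPlite luminescence, proportional to cell number; IC50 from luminescence versus concentration.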
(In ATP-based viability assays light output follows the ATP content of the culture.)

In a further data set the target is CYP2C19 (Homo sapiens, UniProt P33261). Put plainly: CYP2C19 inhibition (fluorescent substrate). It is filed as in vitro ADME. The following applies: CYP2C19, CEC substrate; read-out: Cyp IC50 2C19. The method, boiled down: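 IC50 values come from plotting product fluorescence against compound concentration; inhibition lowers formation of the fluorescent metabolite. Ten-point twofold dilutions in co-factor mix were held 10 minutes at 37 °C before the enzyme reaction, also run at 37 °C.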
Sequence of CYP2C19 (P33261 whole entry): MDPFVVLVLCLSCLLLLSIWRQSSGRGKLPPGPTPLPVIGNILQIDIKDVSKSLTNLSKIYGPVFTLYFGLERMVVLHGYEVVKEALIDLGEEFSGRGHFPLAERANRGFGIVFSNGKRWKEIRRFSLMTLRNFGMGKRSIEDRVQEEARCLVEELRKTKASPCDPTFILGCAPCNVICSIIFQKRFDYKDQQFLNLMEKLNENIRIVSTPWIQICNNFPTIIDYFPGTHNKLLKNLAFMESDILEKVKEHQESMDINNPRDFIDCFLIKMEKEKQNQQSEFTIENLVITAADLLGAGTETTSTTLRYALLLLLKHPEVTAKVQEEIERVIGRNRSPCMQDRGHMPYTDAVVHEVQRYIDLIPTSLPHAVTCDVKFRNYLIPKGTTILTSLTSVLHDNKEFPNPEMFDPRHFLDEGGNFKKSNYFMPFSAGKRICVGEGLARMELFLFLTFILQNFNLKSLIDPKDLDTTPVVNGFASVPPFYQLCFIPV

Sequence of c-Raf-1 (P04049 whole entry): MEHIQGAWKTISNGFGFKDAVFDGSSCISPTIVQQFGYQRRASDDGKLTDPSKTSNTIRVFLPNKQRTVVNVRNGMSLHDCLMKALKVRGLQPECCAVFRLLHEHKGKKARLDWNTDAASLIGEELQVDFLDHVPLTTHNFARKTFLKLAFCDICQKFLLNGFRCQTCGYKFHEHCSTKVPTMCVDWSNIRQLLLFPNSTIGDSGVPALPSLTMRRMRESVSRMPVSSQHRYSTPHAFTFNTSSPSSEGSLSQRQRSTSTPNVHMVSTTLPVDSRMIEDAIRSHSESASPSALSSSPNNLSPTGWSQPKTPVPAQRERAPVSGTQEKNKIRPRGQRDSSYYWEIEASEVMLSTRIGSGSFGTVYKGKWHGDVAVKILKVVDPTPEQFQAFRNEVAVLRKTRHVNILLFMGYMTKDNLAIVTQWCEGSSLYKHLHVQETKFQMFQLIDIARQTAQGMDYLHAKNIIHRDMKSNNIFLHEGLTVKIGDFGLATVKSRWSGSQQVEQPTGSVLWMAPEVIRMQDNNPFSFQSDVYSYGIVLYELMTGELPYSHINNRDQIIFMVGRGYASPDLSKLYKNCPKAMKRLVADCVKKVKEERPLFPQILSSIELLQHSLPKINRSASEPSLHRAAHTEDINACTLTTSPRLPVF
Sequence of CYP3A4(BFC) (P08684 whole entry): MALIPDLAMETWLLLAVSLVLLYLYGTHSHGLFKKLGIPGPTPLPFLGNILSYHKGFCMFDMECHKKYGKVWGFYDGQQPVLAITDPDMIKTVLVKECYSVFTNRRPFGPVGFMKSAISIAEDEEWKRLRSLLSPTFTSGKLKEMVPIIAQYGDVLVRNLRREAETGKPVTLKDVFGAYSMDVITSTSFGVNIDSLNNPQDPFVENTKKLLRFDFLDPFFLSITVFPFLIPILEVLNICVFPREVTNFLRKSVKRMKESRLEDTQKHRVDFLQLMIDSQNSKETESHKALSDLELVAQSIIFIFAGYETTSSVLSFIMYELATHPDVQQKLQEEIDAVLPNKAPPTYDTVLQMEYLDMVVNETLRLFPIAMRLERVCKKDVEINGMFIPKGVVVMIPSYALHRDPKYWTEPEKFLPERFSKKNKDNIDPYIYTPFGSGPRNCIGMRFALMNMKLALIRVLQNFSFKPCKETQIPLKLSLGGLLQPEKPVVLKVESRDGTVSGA

Usually IC50 stands for the concentration that gives 50% inhibition. For `CCCc1ccc(-c2cnc3[nH]cc(C(=O)c4c(F)ccc(NS(=O)(=O)CCC)c4F)c3c2)cn1` [P-2224, Propane-1-sulfonic acid {2,4-difluoro-3-[5-(6-propyl-pyridin-3-yl)-1H-pyrrolo[2,3-b]pyridine-3-carbonyl]-phenyl}-amide], the half-maximal inhibitory concentration (IC50) at CYP3A4(BFC) was above 10 µM; against c-Raf-1, below 0.01 µM; in data set [1], above 10 µM; at CYP2C19, 5 to 10 µM.

As to `N#Cc1cnc2[nH]cc(C(=O)c3cccc(NS(=O)(=O)c4c(F)cccc4F)c3F)c2c1` [P-2054, N-[3-(5-Cyano-1H-pyrrolo[2,3-b]pyridine-3-carbonyl)-2-fluoro-phenyl]-2,6-difluoro-benzenesulfonamide], the half-maximal inhibitory concentration (IC50) on CYP3A4(BFC) is above 10 µM; against c-Raf-1 it was below 0.1 µM; in data set [1], above 10 µM; on CYP2C19, above 10 µM.

As to `CCCS(=O)(=O)Nc1ccc(F)c(C(=O)c2c[nH]c3ncc(C#CCOC)cc23)c1F` [P-2239, Propane-1-sulfonic acid {2,4-difluoro-3-[5-(3-methoxy-prop-1-ynyl)-1H-pyrrolo[2,3-b]pyridine-3-carbonyl]-phenyl}-amide], the concentration for half-maximal inhibition (IC50) on CYP3A4(BFC) is 5 to 10 µM; against c-Raf-1, below 0.01 µM; in data set [1] it was above 10 µM; at CYP2C19, 5 to 10 µM.

Take `O=C(c1c(F)ccc(NS(=O)(=O)c2cc(F)ccc2F)c1F)c1c[nH]c2ncc(Cl)cc12` [P-2002, N-[3-(5-Chloro-1H-pyrrolo[2,3-b]pyridine-3-carbonyl)-2,4-difluoro-phenyl]-2,5-difluoro-benzenesulfonamide]: the IC50 is above 10 µM on CYP3A4(BFC), below 0.01 µM at c-Raf-1, below 20 µM in data set [1] and 5 to 10 µM on CYP2C19.

For the molecule `COc1ncc(-c2cnc3[nH]cc(C(=O)c4c(F)ccc(NS(=O)(=O)c5c(F)cccc5F)c4F)c3c2)cn1` [P-2043, N-{2,4-Difluoro-3-[5-(2-methoxy-pyrimidin-5-yl)-1H-pyrrolo[2,3-b]pyridine-3-carbonyl]-phenyl}-2,6-difluoro-benzenesulfonamide], the IC50 at CYP3A4(BFC) was above 10 µM; against c-Raf-1, below 0.01 µM; in data set [1], above 10 µM; on CYP2C19 it was above 10 µM.

Regarding `CCCS(=O)(=O)Nc1ccc(F)c(C(=O)c2c[nH]c3ncc(-c4ccc(C)nc4)cc23)c1F` [P-2213, Propane-1-sulfonic acid {2,4-difluoro-3-[5-(6-methyl-pyridin-3-yl)-1H-pyrrolo[2,3-b]pyridine-3-carbonyl]-phenyl}-amide], the half-maximal inhibitory concentration (IC50) is above 10 µM at CYP3A4(BFC), below 0.01 µM against c-Raf-1, below 20 µM in data set [1] and above 10 µM at CYP2C19.

In the case of `CCCS(=O)(=O)Nc1ccc(F)c(C(=O)c2c[nH]c3ncc(-c4ccc(S(=O)(=O)NC)cc4)cc23)c1F` [P-2167, 4-{3-[2,6-Difluoro-3-(propane-1-sulfonylamino)-benzoyl]-1H-pyrrolo[2,3-b]pyridin-5-yl}-N-methyl-benzenesulfonamide], the 50% inhibitory concentration (IC50) is above 10 µM at CYP3A4(BFC), below 0.01 µM on c-Raf-1, below 10 µM in data set [1] and 5 to 10 µM on CYP2C19.

With `CCCS(=O)(=O)Nc1ccc(F)c(C(=O)c2c[nH]c3ncc(-c4ccc(F)nc4)cc23)c1F` [P-2155, Propane-1-sulfonic acid {2,4-difluoro-3-[5-(6-fluoro-pyridin-3-yl)-1H-pyrrolo[2,3-b]pyridine-3-carbonyl]-phenyl}-amide], the IC50 is above 10 µM at CYP3A4(BFC), below 0.01 µM against c-Raf-1, above 10 µM in data set [1] and 5 to 10 µM at CYP2C19.

As to `CCCS(=O)(=O)Nc1ccc(F)c(C(=O)c2c[nH]c3ncc(-c4ccc(OCCCN5CCCC5)nc4)cc23)c1F` [P-2235, Propane-1-sulfonic acid (2,4-difluoro-3-{5-[6-(3-pyrrolidin-1-yl-propoxy)-pyridin-3-yl]-1H-pyrrolo[2,3-b]pyridine-3-carbonyl}-phenyl)-amide], the IC50 at CYP3A4(BFC) was above 10 µM; against c-Raf-1 it was below 0.01 µM; in data set [1], above 10 µM; on CYP2C19 it was below 5 µM.

With `CCCS(=O)(=O)Nc1ccc(F)c(C(=O)c2c[nH]c3ncc(-c4cn[nH]c4)cc23)c1F` [P-2174, Propane-1-sulfonic acid {2,4-difluoro-3-[5-(1H-pyrazol-4-yl)-1H-pyrrolo[2,3-b]pyridine-3-carbonyl]-phenyl}-amide], the half-maximal inhibitory concentration (IC50) on CYP3A4(BFC) is above 10 µM; against c-Raf-1, below 0.01 µM; in data set [1], above 10 µM; on CYP2C19, 5 to 10 µM.

In the case of `COc1cnc2[nH]cc(C(=O)c3c(F)ccc(NS(=O)(=O)c4cc(F)ccc4F)c3F)c2c1` [P-2010, N-[2,4-Difluoro-3-(5-methoxy-1H-pyrrolo[2,3-b]pyridine-3-carbonyl)-phenyl]-2,5-difluoro-benzenesulfonamide], the IC50 on CYP3A4(BFC) was above 10 µM; on c-Raf-1 it was below 0.01 µM; in data set [1], above 10 µM; at CYP2C19 it was above 10 µM.

As for `N#Cc1cnc2[nH]cc(C(=O)c3cccc(NS(=O)(=O)c4ccccc4)c3F)c2c1` [P-2056, N-[3-(5-Cyano-1H-pyrrolo[2,3-b]pyridine-3-carbonyl)-2-fluoro-phenyl]-benzenesulfonamide], the IC50 on CYP3A4(BFC) was above 10 µM; at c-Raf-1, below 0.01 µM; in data set [1], below 5 µM; at CYP2C19 it was above 10 µM.

In the case of `N#Cc1cnc2[nH]cc(C(=O)c3c(F)ccc(NS(=O)(=O)c4c(F)cccc4F)c3F)c2c1` [P-2029, N-[3-(5-Cyano-1H-pyrrolo[2,3-b]pyridine-3-carbonyl)-2,4-difluoro-phenyl]-2,6-difluoro-benzenesulfonamide], the half-inhibitory concentration (IC50) at CYP3A4(BFC) was above 10 µM; against c-Raf-1 it was below 0.01 µM; in data set [1], above 10 µM; on CYP2C19 it was above 10 µM.

Regarding `N#Cc1ccnc2[nH]cc(C(=O)c3c(F)ccc(NS(=O)(=O)c4c(F)cccc4F)c3F)c12` [P-2037, N-[3-(4-Cyano-1H-pyrrolo[2,3-b]pyridine-3-carbonyl)-2,4-difluoro-phenyl]-2,6-difluoro-benzenesulfonamide], the IC50 at CYP3A4(BFC) was above 10 µM; against c-Raf-1 it was below 0.01 µM; in data set [1] it was above 10 µM; at CYP2C19, above 10 µM.

Take `CCCS(=O)(=O)Nc1ccc(F)c(C(=O)c2c[nH]c3ncc(-c4ccc(CCCOC)nc4)cc23)c1F` [P-2226, Propane-1-sulfonic acid (2,4-difluoro-3-{5-[6-(3-methoxy-propyl)-pyridin-3-yl]-1H-pyrrolo[2,3-b]pyridine-3-carbonyl}-phenyl)-amide]: the concentration for half-maximal inhibition (IC50) was above 10 µM on CYP3A4(BFC), below 0.1 µM at c-Raf-1, above 10 µM in data set [1] and above 10 µM on CYP2C19.

Take `CCCS(=O)(=O)Nc1ccc(F)c(C(=O)c2c[nH]c3ncc(-c4ccc(C#CCN(CC)CC)nc4)cc23)c1F` [P-2222, Propane-1-sulfonic acid (3-{5-[6-(3-diethylamino-prop-1-ynyl)-pyridin-3-yl]-1H-pyrrolo[2,3-b]pyridine-3-carbonyl}-2,4-difluoro-phenyl)-amide]: the IC50 on CYP3A4(BFC) is above 10 µM; at c-Raf-1 it was below 0.01 µM; in data set [1], above 10 µM; at CYP2C19 it was below 5 µM.

With `Cc1cnc2[nH]cc(C(=O)c3c(F)ccc(NS(=O)(=O)c4cc(F)ccc4F)c3F)c2c1` [P-2015, N-[2,4-Difluoro-3-(5-methyl-1H-pyrrolo[2,3-b]pyridine-3-carbonyl)-phenyl]-2,5-difluoro-benzenesulfonamide], the IC50 on CYP3A4(BFC) is above 10 µM; at c-Raf-1, below 0.01 µM; in data set [1], above 10 µM; on CYP2C19 it was 5 to 10 µM.

Consider `COc1ccnc2[nH]cc(C(=O)c3c(F)ccc(NS(=O)(=O)c4ccccc4F)c3F)c12` [P-2021, N-[2,4-Difluoro-3-(4-methoxy-1H-pyrrolo[2,3-b]pyridine-3-carbonyl)-phenyl]-2-fluoro-benzenesulfonamide], for which the IC50 on CYP3A4(BFC) is above 10 µM; against c-Raf-1, below 0.01 µM; in data set [1], above 10 µM; on CYP2C19, above 10 µM.

Turning to `COc1ccnc2[nH]cc(C(=O)c3c(F)ccc(NS(=O)(=O)c4c(F)cccc4F)c3F)c12` [P-2031, N-[2,4-Difluoro-3-(4-methoxy-1H-pyrrolo[2,3-b]pyridine-3-carbonyl)-phenyl]-2,6-difluoro-benzenesulfonamide], the IC50 at CYP3A4(BFC) was above 10 µM; at c-Raf-1, below 0.1 µM; in data set [1] it was above 10 µM; at CYP2C19, above 10 µM.

As to `CCCS(=O)(=O)Nc1ccc(F)c(C(=O)c2c[nH]c3ncc(-c4ccc(OCCCN(C)C)nc4)cc23)c1F` [P-2178, Propane-1-sulfonic acid (3-{5-[6-(3-dimethylamino-propoxy)-pyridin-3-yl]-1H-pyrrolo[2,3-b]pyridine-3-carbonyl}-2,4-difluoro-phenyl)-amide], the half-inhibitory concentration (IC50) on CYP3A4(BFC) is above 10 µM; against c-Raf-1 it was below 0.01 µM; in data set [1], above 10 µM; at CYP2C19 it was 5 to 10 µM.

For `N#Cc1cnc2[nH]cc(C(=O)c3cccc(NS(=O)(=O)c4cccc(F)c4)c3F)c2c1` [P-2053, N-[3-(5-Cyano-1H-pyrrolo[2,3-b]pyridine-3-carbonyl)-2-fluoro-phenyl]-3-fluoro-benzenesulfonamide], the IC50 at CYP3A4(BFC) was above 10 µM; on c-Raf-1 it was below 0.01 µM; in data set [1], above 10 µM; at CYP2C19, above 10 µM.
